Experimental data published in patent US4322439A, “ω-[2-(N-Lower alkyl-benzamido)-phenyl]-alkanoic acids, their use, and medicaments containing them” (BYK Gulden Lomberg Chemische Fabrik GmbH, priority 1978, dated 1982).
Like-named read-outs stand apart in the source and are kept apart here.

Columns and labels:
[1] = in vivo; details: mouse
Experimental: 3. Determination of the toxicity
The toxicity investigations were carried out on female NMRI mice (body weight 22-26 g). The animals (5 animals per dose) receive, 18 hours before the treatment, the food (Altromin®) reduced to 50 g/50 animals and water ad libitum. Various doses of the substances are administered per os or intraperitoneal (volume 20 ml/kg). The duration of observation is 7 days. The DL50, i.e. the dose at which 50% of the animals die, is determined graphically from the dose effect curve.

[2] = system: fasting, metabolically healthy rats; assay: Blood glucose determination after single oral application (fasting, metabolically healthy rats); format: in vivo, Sprague-Dawley rats; details: for A: Change of the blood glucose concentration (maximal, with reference to control animals): single oral administration 0.6 to 1.0 mmole/kg, maximal change within 24 hours; for ED50: read-out: B: ED50 (dose which effects a lowering of the blood glucose concentration by at least 15% in 50% of the animals)
Experimental: In Table I there are reproduced investigations of the influence of representatives of the compounds according to the invention on the blood glucose concentration of fasting, metabolically healthy rats after single oral administration of substance of 0.6 to 1.0 mmole/kg body weight within 24 hours. Column A states in each case the maximal lowering in % with reference to the control group within 24 hours after application of the compounds.
1. Blood Glucose Determination After Single Oral Application
Young male Sprague-Dawley rats (body weight 160-200 g) are used. The animals are kept in makralon cages with up to 5 animals per cage [room-temperature 23° C., humidity of the atmosphere 55%, fixed day/night rhythm (12/12 h), rat standard diet Altromin^R ].
Food is withdrawn from the animals 20-22 hours before the taking of the 1st blood sample. Water uptake occurs ad libitum. Blood samples are taken at intervals of 0, 2, 6 and 24 hours through puncture from the postorbital plexus.
After deproteinisation with perchloric acid, the blood glucose determination is effected by means of the enzymatic HK/G-6-POH method according to R. Richterich [Klinische Chemie, Theorie und Praxis, 3rd Edition, 1971, S. Karger Verlag, Zuerich-Basle, page 275].
For comparison, in each case a control group treated with pure solvent is also investigated.

[3] = system: isolatedly perfused rat liver; assay: Inhibition of glucose formation (from lactate and pyruvate) on the isolatedly perfused rat liver; set-up: species or system Sprague-Dawley rats; details: for D: ID50 (inhibition of the glucose formation from lactate and pyruvate by 50%): isolatedly perfused rat liver, concentration in the perfusate
Experimental: The values in column D show the concentrations (ID50 mmol/l) of the substances in the perfusate, which bring about on the isolatedly perfused rat liver an inhibition of the glucose formation from lactat and pyruvat by 50%.
2. Inhibition of Glucose Formation on the Isolatedly Perfused Rat Liver
Young male Sprague-Dawley rats (160-200 g) are used. The animals are kept as described under 1.
Food is withdrawn from the animals 20-22 hours before the operation. Water uptake occurs ad libitum. Operation and perfusion of the liver are effected according to the technique of R. Scholz et al. [Eur. J. Biochem. 38 (1973) 64-72]. As perfusion liquids, Krebs-Henseleit biocarbonate buffer (pH 7.4) is used which is saturated with an oxygen/carbon dioxide mixture (95/5) and contains 1.6 mmoles/liter L-lactates and 0.2 mmole/liter pyruvate. The perfusion liquid is pumped into the liver via a cannula introduced into the portal vein. The perfusion liquid emerging is collected via a cannula introduced into the vena cava and then taken past an oxygen electrode. The liver is perfused for about 2 hours. The test compounds are infused from the 32nd to 80th minute of the perfusion, with increasing concentrations (0.01, 0.03, 0.10 mmol/l).
Samples of the emerged perfusion liquid are collected at one-minute intervals and analysed for glucose, lactate and pyruvate according to enzymatic standard methods. The oxygen content is continuously determined by means of a platinum electrode. The check constants (ID50) stated in Table I refer to the state which exists before and after addition of the compounds; the changes caused alone through lactate and pyruvate were set at 100%.

[4] = rat, single oral administration, with reference to control group
[5] = ip, i.p., read-out: C: LD50 (i.p.)

CN(C(=O)c1ccc(Cl)cc1)c1ccccc1CCCC(=O)O [Serial No. 9, 4-[2-(N-methyl-4-chlorobenzamido)-phenyl]-butyric acid]
LD50 at 168 h ([1]; po, per os, read-out: C: LD50): > 1000 mg/kg | A: Change of the blood glucose concentration (maximal, with reference to control animals) ([2]; rat): -24% | ED50 [2, 4]: 103 mg/kg

CN(C(=O)c1ccccc1)c1ccccc1CCCC(=O)O [Serial No. 3, 4-[2-(N-methylbenzamido)-phenyl]-butyric acid]
A: Change of the blood glucose concentration (maximal, with reference to control animals) ([2]; rat): -27% | ED50 [2, 4]: 205 mg/kg

CCCCNC(=N)NC(=N)N [Serial No. 1, buformin, reference compound]
ED50 ([2]; Rattus norvegicus, po): 227 mg/kg | A: Change of the blood glucose concentration (maximal, with reference to control animals) ([2]; rat): -20% | inhibition of the glucose formation from lactate and pyruvate in the liver (in words) [3]: no inhibition | D: ID50 (inhibition of the glucose formation from lactate and pyruvate by 50%) [3]: ineffective

CN(C(=O)c1cccc(C(F)(F)F)c1)c1ccccc1CCCC(=O)O [Serial No. 12, 4-[2-(N-methyl-3-trifluoromethylbenzamido)-phenyl]-butyric acid]
LD50 at 168 h [1, 5]: 150 mg/kg | A: Change of the blood glucose concentration (maximal, with reference to control animals) ([2]; rat): -20% | ED50 [2, 4]: 278 mg/kg

COc1ccc(N(C)C(=O)c2ccc(Cl)c(Cl)c2)c(CCCC(=O)O)c1 [Serial No. 14, 4-[5-methoxy-2-(N-methyl-3,4-dichloro-benzamido)-phenyl]-butyric acid]
A: Change of the blood glucose concentration (maximal, with reference to control animals) ([2]; rat): -21%

CN(C(=O)c1ccc(Cl)c(Cl)c1)c1ccc(Cl)cc1CCC(=O)O [Serial No. 7, 3-[5-chloro-2-(N-methyl-3,4-dichlorobenzamido)-phenyl]-propionic acid]
LD50 at 168 h ([1]; po, per os, read-out: C: LD50): > 1000 mg/kg | A: Change of the blood glucose concentration (maximal, with reference to control animals) ([2]; rat): -15%

CN(C(=O)c1cccc(C(F)(F)F)c1)c1ccc(Cl)cc1CCC(=O)O [Serial No. 8, 3-[5-chloro-2-(N-methyl-3-trifluoromethylbenzamido)-phenyl]-propionic acid]
LD50 at 168 h ([1]; po, per os, read-out: C: LD50): > 1000 mg/kg | A: Change of the blood glucose concentration (maximal, with reference to control animals) ([2]; rat): -26% | ED50 [2, 4]: 185 mg/kg

CN(C(=O)c1ccc(Cl)cc1)c1ccccc1CCC(=O)O [Serial No. 4, 3-[2-(N-methyl-4-chlorobenzamido)-phenyl]-propionic acid]
A: Change of the blood glucose concentration (maximal, with reference to control animals) ([2]; rat): -16% | ED50 [2, 4]: 426 mg/kg

CN(C(=O)c1ccc(Cl)c(Cl)c1)c1ccccc1CCC(=O)O [Serial No. 5, 3-[2-(N-methyl-3,4-dichlorobenzamido)-phenyl]-propionic acid]
LD50 at 168 h ([1]; po, per os, read-out: C: LD50): 1100 mg/kg | A: Change of the blood glucose concentration (maximal, with reference to control animals) ([2]; rat): -11% | ED50 [2, 4]: 363 mg/kg

[H]/N=C(/N)N/C(=N/[H])NCCc1ccccc1 [Serial No. 2, phenformin]
A: Change of the blood glucose concentration (maximal, with reference to control animals) ([2]; rat): -2% | inhibition of the glucose formation from lactate and pyruvate in the liver (in words) [3]: no inhibition | D: ID50 (inhibition of the glucose formation from lactate and pyruvate by 50%) [3]: ineffective

CN(C(=O)c1ccccc1)c1ccccc1CCC(=O)O [Serial No. 6, 3-[2-(N-methylbenzamido)-phenyl]-propionic acid]
LD50 at 168 h ([1]; po, per os, read-out: C: LD50): 970 mg/kg | A: Change of the blood glucose concentration (maximal, with reference to control animals) ([2]; rat): -26% | ED50 [2, 4]: 221 mg/kg

CN(C(=O)c1ccc(Cl)c(Cl)c1)c1ccccc1CCCC(=O)O [Serial No. 10, 4-[2-(N-methyl-3,4-dichlorobenzamido)-phenyl]-butyric acid]
LD50 at 168 h [1, 5]: 250 mg/kg | A: Change of the blood glucose concentration (maximal, with reference to control animals) ([2]; rat): -17% | ED50 [2, 4]: 198 mg/kg

COc1cccc(N(C)C(=O)c2ccc(Cl)cc2)c1CCCC(=O)O [Serial No. 13, 4-[6-methoxy-2-(N-methyl-4-chlorobenzamido)-phenyl]-butyric acid]
A: Change of the blood glucose concentration (maximal, with reference to control animals) ([2]; rat): -14% | ED50 [2, 4]: > 500 mg/kg

CN(C(=O)c1ccc(Cl)c(Cl)c1)c1ccccc1CCCCC(=O)O [Serial No. 15, 5-[2-(N-methyl-3,4-dichlorobenzamido)-phenyl]-valeric acid]
A: Change of the blood glucose concentration (maximal, with reference to control animals) ([2]; rat): -5% | ED50 [2, 4]: > 700 mg/kg

CN(C(=O)c1ccc(Cl)cc1Cl)c1ccccc1CCCC(=O)O [Serial No. 11, 4-[2-(N-methyl-2,4-dichlorobenzamido)-phenyl]-butyric acid]
LD50 at 168 h ([1]; po, per os, read-out: C: LD50): > 1000 mg/kg | A: Change of the blood glucose concentration (maximal, with reference to control animals) ([2]; rat): -17% | ED50 [2, 4]: 245 mg/kg
